Source: patent US20090048301A1 (IMCLONE SYSTEMS INCORPORATED, priority 2003, published 2009)
Where “and” joins values, the source holds several entries; their conditions need not be identical. Identical values can stand only once.

Experiments:
[1] = test system: bovine tubulin; experiment: In vitro tubulin polymerization assay (turbidity at 340 nm); format: biochemical; details: 10 μM compound, 30 minute data point, vs 1% DMSO control
Summary of the method: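 Bovine tubulin (97%, <3% MAPs) at 3 mg/ml final in G-PEM pH 7 with 1 mM GTP and 5% glycerol, added cold to compound wells at 37° C (1% DMSO final). A340 read each minute for 30 min; percent inhibition from 30-min point versus DMSO control.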

[2] = test system: A431, human epidermoid carcinoma cells; experiment: Cell cycle analysis (FACS), mitotic arrest in G2/M; format: cell-based; details: Homo sapiens, A-431, 24 h, read-out: FACS Assay: concentration required to achieve inhibition in FACS assay
Description: The cell cycle analysis was performed as follows. Cancer cells (A431, human epidennoid carcinoma cells) were maintained in culture in D-MEM media with 10% FBS and 1 mg/ml glutamate. Prior to experiment, cells were plated onto 6-well plates for a final density of 500,000 cells/well at the time of treatment. Cells were treated with the compounds of the invention at a concentration of about 0.01 to 1 μM final concentrations (final 0.1% DMSO) for 24 hours, then trypsinized, collected, rinsed in PBS (phosphate buffered saline), and fixed in 70% cold ethanol overnight at 4° C. The cells were then rinsed with PBS, resuspended in PBS with 0.2% Tween, RNAse was added (final 1 μg/ml), cells were incubated at 37° C. for 15 min, followed by addition of Propidium Iodide (final 50 μg/ml), and a 30 minute incubation at room temperature. DNA ploidy was analyzed using flow cytometers (Epics Excel, Beckman-Coulter, or Guava PCA-96, Guava Technologies) and mitotic arrest characterized by massive accumulation of cells in the G2/M phase of cell cycle.
Cancer cells (A431, human epidermoid cells) were maintained in culture in D-MEM media with 10% FBS and 1 mg/ml glutamate. Prior to experiment, cells are plated onto 6-well plates for a final density of 500,000 cells/well at the time of treatment. Cells were treated with compounds at 0.01-1 μM final concentrations (final […] DMS 0) for 24 hours, then trypsinized, collected, rinsed in PBS (phosphate buffered saline), and fixed in 70% cold ethanol overnight at 4° C. Cells were then rinsed with PBS, resuspended in PBS with 0.2% Tween, RNAse was added (final 1 μg/ml), cells were incubated at 37° C. for 15 min, followed by addition of Propidium Iodide (final 50 μg/ml), and a 30 minute incubation at room temperature. DNA ploidy was analyzed using cell sorters (Epics Excel, Beckman-Coulter, or Guava PCA-96, Guava Technologies) and mitotic arrest characterized by massive accumulation of cells in the G2/M phase of cell cycle.

Row | SMILES | Tubulin Assay: percent inhibition at 10 μM based on 30 minute data [1] | minimal effective concentration [2]
1 | COc1cc(Nc2ncccc2-c2nnc(Nc3ccc4c(c3)OCCO4)[nH]2)cc(OC)c1 [Compound 50, {3-[5-(2,3-Dihydro-benzo[1,4]dioxin-6-ylamino)-4H-[1,2,4]triazol-3-yl]-pyridin-2-yl}-(3,5-dimethoxy-phenyl)-amine] | 90% | 0.1 µM
2 | COc1cccc(CNc2nnc(-c3cccnc3Nc3cc(OC)cc(OC)c3)[nH]2)c1 [Compound 58, (3,5-Dimethoxy-phenyl)-{3-[5-(3-methoxy-benzylamino)-4H-[1,2,4]triazol-3-yl]-pyridin-2-yl}-amine] | 100% | 0.1 µM
3 | Nc1ccccc1-c1nnc(Nc2ccc3c(c2)OCCO3)o1 [Compound 241, [5-(2-Amino-phenyl)-[1,3,4]oxadiazol-2-yl]-(2,3-dihydro-benzo[1,4]dioxin-6-yl)-amine] | 75% | 1 µM
4 | Fc1ccc(CNc2ncccc2-c2nnc(Nc3ccc4c(c3)OCO4)o2)cc1 [Compound 172, {3-[5-(Benzo[1,3]dioxol-5-ylamino)-[1,3,4]oxadiazol-2-yl]-pyridin-2-yl}-(4-fluoro-benzyl)-amine] | 95% and 87% | 0.1 µM
5 | COc1cccc(CNc2ncccc2-c2nnc(Nc3ccc4c(c3)OCO4)o2)c1 [Compound 156, {3-[5-(Benzo[1,3]dioxol-5-ylamino)-[1,3,4]oxadiazol-2-yl]-pyridin-2-yl}-(3-methoxy-benzyl)-amine] | 64% | 1 µM
6 | c1coc(CNc2ncccc2-c2nnc(Nc3ccc4c(c3)OCO4)o2)c1 [Compound 163, {3-[5-(Benzo[1,3]dioxol-5-ylamino)-[1,3,4]oxadiazol-2-yl]-pyridin-2-yl}-furan-2-ylmethyl-amine] | 90% | 1 µM
7 | CS(=O)(=O)c1ccc(-c2nnc(-c3cccnc3NCc3ccco3)[nH]2)cc1 [Compound 98, Furan-2-ylmethyl-{3-[5-(4-methanesulfonyl-phenyl)-4H-[1,2,4]triazol-3-yl]-pyridin-2-yl}-amine] | 83% | 1 µM
8 | COc1cccc(Nc2nnc(-c3cccnc3OCc3ccc4c(c3)OCO4)[nH]2)c1 [Compound 73, {5-[2-(Benzo[1,3]dioxol-5-ylmethoxy)-pyridin-3-yl]-4H-[1,2,4]triazol-3-yl}-(3-methoxy-phenyl)-amine] | 70% | 1 µM
9 | CS(=O)(=O)c1ccc(-c2nnc(-c3cccnc3NCc3ccc(F)cc3)[nH]2)cc1 [Compound 108, (4-Fluoro-benzyl)-{3-[5-(4-methanesulfonyl-phenyl)-4H-[1,2,4]triazol-3-yl]-pyridin-2-yl}-amine] | 91% | 0.1 µM
10 | c1cnc(OCc2ccc3c(c2)OCO3)c(-c2nnc(Nc3ccc4c(c3)OCO4)[nH]2)c1 [Compound 72, Benzo[1,3]dioxol-5-yl-{5-[2-(benzo[1,3]dioxol-5-ylmethoxy)-pyridin-3-yl]-4H-[1,2,4]triazol-3-yl}-amine] | 100% | 0.1 µM
11 | COc1cccc(Nc2nnc(-c3cccnc3NCc3ccncc3)[nH]2)c1 [Compound 39, {3-[5-(3-Methoxy-phenylamino)-4H-[1,2,4]triazol-3-yl]-pyridin-2-yl}-pyridin-4-ylmethyl-amine] | 83% | 0.1 µM
12 | COc1cccc(-c2nnc(-c3ccccc3NCc3ccc4c(c3)OCO4)[nH]2)c1 [Compound 148, Benzo[1,3]dioxol-5-ylmethyl-{2-[5-(3-methoxy-phenyl)-4H-[1,2,4]triazol-3-yl]-phenyl}-amine] | 71% | 10 µM
13 | Fc1ccc(CNc2ncccc2-c2nnc(Nc3ccc4c(c3)OCO4)o2)cc1F [Compound 155, {3-[5-(Benzo[1,3]dioxol-5-ylamino)-[1,3,4]oxadiazol-2-yl]-pyridin-2-yl}-(3,4-difluoro-benzyl)-amine] | 91% | 1 µM
14 | COc1cc(CNc2ccccc2-c2nnc(Nc3ccc4c(c3)OCCO4)o2)cc(OC)c1 [Compound 219, (2,3-Dihydro-benzo[1,4]dioxin-6-yl)-{5-[2-(3,5-dimethoxy-benzylamino)-phenyl]-[1,3,4]oxadiazol-2-yl}-amine] | 63% | 0.1 µM
15 | Fc1ccc(CNc2ncccc2-c2nnc(Nc3ccc4c(c3)OCCO4)[nH]2)cc1F [Compound 44, (3,4-Difluoro-benzyl)-{3-[5-(2,3-dihydro-benzo[1,4]dioxin-6-ylamino)-4H-[1,2,4]triazol-3-yl]-pyridin-2-yl}-amine] | 84% | 1 µM
16 | c1cnc(NCc2ccc3c(c2)OCO3)c(-c2nnc(Nc3ccc4c(c3)OCCO4)o2)c1 [Compound 195, Benzo[1,3]dioxol-5-ylmethyl-{3-[5-(2,3-dihydro-benzo[1,4]dioxin-6-ylamino)-[1,3,4]oxadiazol-2-yl]-pyridin-2-yl}-amine] | 73% | 0.01 µM
17 | COc1cccc(S(=O)(=O)Nc2ccccc2-c2nnc(Nc3ccc4c(c3)OCO4)o2)c1 [Compound 237, N-{2-[5-(Benzo[1,3]dioxol-5-ylamino)-[1,3,4]oxadiazol-2-yl]-phenyl}-3-methoxy-benzenesulfonamide] | 99% | 1 µM
18 | COc1ccc(CNc2ncccc2-c2nnc(Nc3ccc4c(c3)OCO4)o2)cc1 [Compound 157, {3-[5-(Benzo[1,3]dioxol-5-ylamino)-[1,3,4]oxadiazol-2-yl]-pyridin-2-yl}-(4-methoxy-benzyl)-amine] | 92% | 1 µM
19 | COc1cccc(CNc2ncccc2-c2nnc(Nc3ccc4c(c3)OCCO4)o2)c1 [Compound 159, {3-[5-(2,3-Dihydro-benzo[1,4]dioxin-6-ylamino)-[1,3,4]oxadiazol-2-yl]-pyridin-2-yl}-(3-methoxy-benzyl)-amine] | 87% | 0.075 µM
20 | CS(=O)(=O)c1ccc(-c2nnc(-c3cccnc3NCc3ccc4c(c3)CCO4)[nH]2)cc1 [Compound 97, (2,3-Dihydro-benzofuran-5-ylmethyl)-{3-[5-(4-methanesulfonyl-phenyl)-4H-[1,2,4]triazol-3-yl]-pyridin-2-yl}-amine] | 77% | 1 µM
21 | COc1cccc(-c2nnc(-c3ccccc3NCc3ccc4[nH]ncc4c3)[nH]2)c1 [Compound 136, (1H-Indazol-5-ylmethyl)-{2-[5-(3-methoxy-phenyl)-4H-[1,2,4]triazol-3-yl]-phenyl}-amine] | 32% | 10 µM
22 | FC(F)(F)c1ccc(-c2nnc(Nc3ccc4c(c3)OCO4)[nH]2)c(NCc2ccncc2)c1 [Compound 124, Benzo[1,3]dioxol-5-yl-(5-{2-[(pyridin-4-ylmethyl)-amino]-4-trifluoromethyl-phenyl}-4H-[1,2,4]triazol-3-yl)-amine] | 93% | 0.1 µM
23 | COc1ccc(CNc2nnc(-c3cccnc3Nc3cc(OC)cc(OC)c3)[nH]2)cc1 [Compound 59, (3,5-Dimethoxy-phenyl)-{3-[5-(4-methoxy-benzylamino)-4H-[1,2,4]triazol-3-yl]-pyridin-2-yl}-amine] | 88% | 1 µM
24 | Brc1ccc(-c2nnc(-c3ccccc3NCc3ccc4[nH]ncc4c3)[nH]2)cc1 [Compound 145, {2-[5-(4-Bromo-phenyl)-4H-[1,2,4]triazol-3-yl]-phenyl}-(1H-indazol-5-ylmethyl)-amine] | 58% | 0.1 µM
25 | Fc1ccc(CNc2ncccc2-c2nnc(Nc3ccc4c(c3)OCO4)[nH]2)cc1F [Compound 43, {3-[5-(Benzo[1,3]dioxol-5-ylamino)-4H-[1,2,4]triazol-3-yl]-pyridin-2-yl}-(3,4-difluoro-benzyl)-amine] | 84% | 1 µM
